Measurements from the NIST ThermoML archive (doi:10.1021/je8004134).

Test: an = ratio of the nth substance listed, in mol/kg
Settings: 298.15 K, 101 kPa, Liquid; for speed of sound: Sing-around technique in a fixed-path interferometer; for mass density: Vibrating tube method

[Mn+2].[O-][Cl+3]([O-])([O-])[O-].[O-][Cl+3]([O-])([O-])[O-] [manganese (II) perchlorate] + C[S+](C)[O-]
Settings	mass density [kg/m3]	speed of sound [m/s]
a1 = 0.0211	1099.48	1485.3
a1 = 0.02843	1100.98	1485.8
a1 = 0.037	1102.73	1486.2
a1 = 0.04758	1104.9	1486.8
a1 = 0.05763	1106.97	1487.5
a1 = 0.07358	1110.26	1488.3
a1 = 0.09456	1114.62	1489.7
a1 = 0.1139	1118.65	1490.8
a1 = 0.1337	1122.82	1492
a1 = 0.1566	1127.65	1493.4
a1 = 0.1754	1131.67	1494.6

C[S+](C)[O-] [dimethyl sulfoxide] + [Cl-].[Cl-].[Zn+2]
a2 = 0
Settings	mass density [kg/m3]	speed of sound [m/s]
–	1095.2	1484.1

CC(=O)N(C)C [N,N-dimethylethanamide] + [Cl][Ni][Cl]
a2 = 0
Settings	mass density [kg/m3]	speed of sound [m/s]
–	936.23	1455.4

[Co+2].[O-][Cl+3]([O-])([O-])[O-].[O-][Cl+3]([O-])([O-])[O-] [cobalt(II) perchlorate] + C[S+](C)[O-]
Settings	mass density [kg/m3]	speed of sound [m/s]
a1 = 0.0215	1099.78	1485.5
a1 = 0.03236	1102.1	1486.2
a1 = 0.04309	1104.4	1486.9
a1 = 0.05528	1107.03	1487.7
a1 = 0.06505	1109.14	1488.3
a1 = 0.08726	1113.97	1489.8
a1 = 0.1069	1118.27	1491
a1 = 0.1285	1123.03	1492.5
a1 = 0.148	1127.38	1493.7
a1 = 0.1695	1132.18	1495.2
a1 = 0.1911	1137.05	1496.6

[Mn+2].[O-][Cl+3]([O-])([O-])[O-].[O-][Cl+3]([O-])([O-])[O-] [manganese (II) perchlorate] + CC(=O)N(C)C
Settings	mass density [kg/m3]	speed of sound [m/s]
a1 = 0.03006	942.406	1459.5
a1 = 0.05909	948.611	1463.1
a1 = 0.08863	954.924	1466.8
a1 = 0.1177	961.136	1470.4
a1 = 0.1466	967.302	1474.1
a1 = 0.1747	973.327	1477.6
a1 = 0.2018	979.1	1481.2
a1 = 0.2287	984.866	1485

[Ni+2].[O-][Cl+3]([O-])([O-])[O-].[O-][Cl+3]([O-])([O-])[O-] [nickel perchlorate] + C[S+](C)[O-]
Settings	mass density [kg/m3]	speed of sound [m/s]
a1 = 0.01259	1097.89	1485
a1 = 0.02515	1100.6	1485.8
a1 = 0.03816	1103.4	1486.7
a1 = 0.051	1106.18	1487.5
a1 = 0.06341	1108.88	1488.4
a1 = 0.07675	1111.79	1489.2
a1 = 0.08797	1114.24	1490
a1 = 0.1004	1116.98	1491
a1 = 0.1125	1119.67	1491.7
a1 = 0.1251	1122.43	1492.6

CC(=O)N(C)C [N,N-dimethylethanamide] + [Cl][Mn][Cl]
a2 = 0
Settings	mass density [kg/m3]	speed of sound [m/s]
–	936.233	1455.4

CC(=O)N(C)C [N,N-dimethylethanamide] + [Cl-].[Cl-].[Zn+2]
a2 = 0
Settings	mass density [kg/m3]	speed of sound [m/s]
–	936.22	1455.4

C[S+](C)[O-] [dimethyl sulfoxide] + [Co+2].[O-][Cl+3]([O-])([O-])[O-].[O-][Cl+3]([O-])([O-])[O-]
a2 = 0
Settings	mass density [kg/m3]	speed of sound [m/s]
–	1095.19	1484.1

C[S+](C)[O-] [dimethyl sulfoxide] + [Cl][Mn][Cl]
a2 = 0
Settings	mass density [kg/m3]	speed of sound [m/s]
–	1095.19	1484.1

CC(=O)N(C)C [N,N-dimethylethanamide] + [Cl][Co][Cl]
a2 = 0
Settings	mass density [kg/m3]	speed of sound [m/s]
–	936.417	1455.4

[Cl][Cu][Cl] [copper chloride] + C[S+](C)[O-]
Settings	mass density [kg/m3]	speed of sound [m/s]
a1 = 0.04097	1100.01	1485.3
a1 = 0.05136	1101.21	1485.5
a1 = 0.0616	1102.39	1485.8
a1 = 0.07134	1103.53	1486
a1 = 0.08195	1104.77	1486.2
a1 = 0.09202	1105.94	1486.4
a1 = 0.1022	1107.13	1486.6

CC(=O)N(C)C [N,N-dimethylethanamide] + [Cl][Cu][Cl]
a2 = 0
Settings	mass density [kg/m3]	speed of sound [m/s]
–	936.304	1455.4

[Co+2].[O-][Cl+3]([O-])([O-])[O-].[O-][Cl+3]([O-])([O-])[O-] [cobalt(II) perchlorate] + CC(=O)N(C)C
Settings	mass density [kg/m3]	speed of sound [m/s]
a1 = 0.029	942.693	1459.3
a1 = 0.04235	945.675	1461
a1 = 0.05501	948.505	1462.7
a1 = 0.08591	955.413	1466.7
a1 = 0.1144	961.778	1470.4
a1 = 0.1415	967.838	1474
a1 = 0.1692	974.036	1477.8
a1 = 0.1973	980.3	1481.6
a1 = 0.2214	985.701	1484.9

[Cu+2].[O-][Cl+3]([O-])([O-])[O-].[O-][Cl+3]([O-])([O-])[O-] [copper perchlorate] + C[S+](C)[O-]
Settings	mass density [kg/m3]	speed of sound [m/s]
a1 = 0.01425	1098.31	1485
a1 = 0.02779	1101.26	1485.9
a1 = 0.0419	1104.35	1486.8
a1 = 0.05636	1107.54	1487.7
a1 = 0.07067	1110.7	1488.7
a1 = 0.08366	1113.58	1489.5
a1 = 0.09783	1116.73	1490.4
a1 = 0.1114	1119.78	1491.4
a1 = 0.1251	1122.85	1492.2
a1 = 0.1384	1125.85	1493.3
